# Data published in US20050137135A1 (priority 2002, published 2005).
# Entries after “also recorded” stand apart in the source; their conditions may differ.
# Key:
# [1] = test system: INS-1 cells (clone 832/13); assay: Insulin release from INS-1 (832/13) cells; format: cell-based; conditions: 10 nM GIP, 60 minutes, n=3
# Excerpt: (§1) Cell passages 45-60 were used.
# [2] = test system: INS-1 (832/13) cells; assay: Glucose dependent β-cell proliferation (CYQUANT cell quantification); format: cell-based
# Procedure: as §1
# Cells were seeded into 96-well plates (5×10^4 cells/well) prior to experimentation. […] Thereafter, cells were washed with KRBH (115 mM NaCl, 4.7 mM KCl, 1.2 mM KH2PO4, 10 mM NaHCO3, 1.28 mM CaCl2, 1.2 mM MgSO4 containing 10 mM HEPES and 0.1% bovine serum albumin, pH 7.4) and frozen at −70° C. until assayed. Cells were quantified using the CYQUANT™ assay system (Molecular Probes, Eugene, Oreg., USA) according to the manufacturers' protocol. Final cell numbers were always greater than the initial number plated in assessing cellular proliferation.
# [3] = test system: INS-1 (832/13) cells; assay: Cell survival during glucose deprivation (CYQUANT); format: cell-based
# Procedure: as §1
# Cells were seeded into 96-well plates (5×10^4 cells/well) prior to experimentation. […] Cells were quantified using the CYQUANT™ assay system (Molecular Probes, Eugene, Oreg., USA) according to the manufacturers' protocol.
# Cell survival was assessed in the presence of prolonged glucose deprivation.
# [4] = test system: caspase-3 activity in INS-1 (832/13) cells; assay: Caspase-3 activity induced by glucose deprivation; format: cell-based; conditions: 6 h; 100 nM GIP, 10 µM forskolin
# Procedure: (§2) INS-1 cells (clone 832/13) seeded into 6-well plates were serum starved for 12-24 h and subjected to glucose deprivation (RPMI with 0.1% BSA) or treatment with 2 mM streptozotocin (STZ). […] Following treatment, caspase-3 activity was determined after 2, 6, or 24 h according to the manufacturers' protocol (Molecular Probes, Eugene, Oreg., USA). Caspase-3 activity/well was corrected for total protein content using the BCA protein assay (Pierce, Roxford, II, USA).
# [5] = test system: caspase-3 activity in INS-1 (832/13) cells; assay: Caspase-3 activity induced by streptozotocin (STZ); format: cell-based; conditions: added 10 minutes prior to and during a 30 minute STZ exposure
# Procedure: as §2
# [6] = in vivo; cited from earlier work
smiles,measurement,setting,value
"CC[C@H](C)[C@H](NC(=O)[C@H](CO)NC(=O)[C@H](Cc1ccc(O)cc1)NC(=O)[C@H](CC(=O)O)NC(=O)[C@H](CO)NC(=O)[C@@H](NC(=O)[C@H](Cc1ccccc1)NC(=O)[C@@H](NC(=O)CNC(=O)[C@H](CCC(=O)O)NC(=O)[C@H](C)NC(=O)[C@@H](N)Cc1ccc(O)cc1)[C@@H](C)O)[C@@H](C)CC)C(=O)N[C@@H](C)C(=O)N[C@@H](CCSC)C(=O)N[C@@H](CC(=O)O)C(=O)N[C@@H](CCCCN)C(=O)N[C@H](C(=O)N[C@@H](Cc1c[nH]cn1)C(=O)N[C@@H](CCC(N)=O)C(=O)N[C@@H](CCC(N)=O)C(=O)N[C@@H](CC(=O)O)C(=O)N[C@@H](Cc1ccccc1)C(=O)N[C@H](C(=O)N[C@@H](CC(N)=O)C(=O)N[C@@H](Cc1c[nH]c2ccccc12)C(=O)N[C@@H](CC(C)C)C(=O)N[C@@H](CC(C)C)C(=O)N[C@@H](C)C(=O)N[C@@H](CCC(N)=O)C(=O)N[C@@H](CCCCN)C(=O)NCC(=O)N[C@@H](CCCCN)C(=O)N[C@@H](CCCCN)C(=O)N[C@@H](CC(N)=O)C(=O)N[C@@H](CC(=O)O)C(=O)N[C@@H](Cc1c[nH]c2ccccc12)C(=O)N[C@@H](CCCCN)C(=O)N[C@@H](Cc1c[nH]cn1)C(=O)N[C@@H](CC(N)=O)C(=O)N[C@H](C(=O)N[C@H](C(=O)N[C@@H](CCC(N)=O)C(=O)O)[C@@H](C)O)[C@@H](C)CC)C(C)C)[C@@H](C)CC [GIP, glucose-dependent insulinotropic polypeptide]",5.5 mM glucose stimulated insulin secretion,[1],2.44±0.29 % total insulin secreted
same,potentiation of glucose dependent β-cell proliferation,[2]; 11 mM glucose,potentiates 11 mM glucose induced cell growth
same,"cell proliferation, % of growth in the presence of 5.5 mM glucose","[2]; 11 mM glucose, 100 nM, FIG. 15A",158±16%
same,"cell growth, % of that measured in the presence of 5.5 mM glucose","[2]; separate experiment, 100 nM, n=4",131±7%
same,effect on cell survival during glucose deprivation,[3]; 0 mM glucose,promotes INS-1 (832/13) cell survival during glucose deprivation in a concentration-dependent manner
same,protection against wortmannin-induced cell loss,"[3]; n=3, p<0.05",partially protected; also recorded: partially reversed
same,0 mM glucose induced caspase-3 activity,[4],completely reversed; also recorded: ablates
same,STZ induced caspase-3 activity,[5],protect against the pro-apoptotic (caspase-3 activating) effects of STZ completely; also recorded: ablates
same,biological half-life,[6],~2 min
